Patent publication US20050112573A1, “Method of detecting toxic substance” (priority 2001, published 2005)

Tested on: yeast genes (level of expressed mRNA)
Assay: DNA chip analysis of expressed mRNA of yeast genes after 2 h culture with a toxic chemical substance
Type: cell-based, Saccharomyces cerevisiae S288C
Details: for The level of expressed mRNA in the presence of chemical substance/ (ratio to absence of chemical substance): stress protein genes, DNA chip
Description: Yeast (Saccharomyces cerevtisiae S288C (α SUC2mal mel gap2 CUP1)) were cultured at 25° C. on YPD medium (yeast extract 1%, polypepton 2%, glucose 2%). One of toxic chemical substances was added to the cell at logarithmic growth phase, and the cell was further cultured for two hours. Cell was cultured without any chemical substance in the same condition, and was used as control. Concentrations of the chemical substances were defined to inhibit the growth of the yeast but not lead to death.
After the completion of cultivation, the culture was centrifuged to collect the cells. To the cells, sodium acetate buffer (50 mM sodium acetate, 10 mM EDTA, 1% SDS) was added, and the mixture was shaken at 65° C. for five minutes, followed by returning to room temperature, and obtaining the supernatant, which procedure was repeated two times. To the supernatant, ½ amount of a solution of phenol/chloroform was added, and the mixture was centrifuged to give a supernatant, which was added with an equal amount of chloroform, and the mixture was centrifuged to give a supernatant. To the supernatant, an equal amount of isopropanol containing 0.3 M sodium acetate was added, and the mixture was allowed to stand at room temperature for 30 minutes, after which the mixture was centrifuged to give a sediment of the whole RNAs. Seventy % ethanol was added to the sediment, and the mixture was again centrifuged to give a sediment, which was then dried and dissolved in water. mRNA was isolated from the whole RNAs as followings. In view of the fact that a poly A chain is attached to the 3′ terminus of mRNA, a polynucleotide having a poly T structure which was immobilized on the surface of latex beads was used to trap the mRNA, and then the mRNA was washed and eluted with spine column (Oligotex-dT30<Super>mRNA Purification Kit, Takara). Reverse transcription of the mRNA was conducted with a reverse transcriptase (Super Script II Reverse Transcriptase; catalogue No. 18064-014, GibcoBRL) using fluorescence-labeled nucleotides to give cDNAs that were introduced with Cy3-dUTP or Cy5-dUTP during the reverse transcription.
The labeled cDNAs were dissolved in TE buffer (10 mM Tris-HCl/1 mM EDTA, pH8.0), and the solution was dropped on the DNA chip containing the whole genes of yeast (DNA Chip Research Inc. Japan) so that the cDNAs were hybridized on the DNA chip at 65° C. for over 12 hours. The fluoresces intensity of the DNA chip was read with a scanner, and the ratio relative to the fluorescence intensity resulting from the absence of chemical substance was estimated as the following, which is shown in Tables 1 to 9: [formula]
In the Tables, “Intensity” indicated in the rightmost column is a value of the level of expressed mRNA of each gene in control cells as divided by the average level of the expressions of the whole genes.

COc1cc(CNC(=O)CCCCC=CC(C)C)ccc1O [(12), 8-methyl-N-vanillyl-6-nonenamide]
0.8: The level of expressed mRNA in the presence of chemical substance/ (in its absence), gene YDR073W (yeast gene YDR073W, ratio of DNA chip fluorescence intensity to that without chemical substance) | The level of expressed mRNA in the presence of chemical substance/The level of expressed mRNA in the absence of chemical substance (yeast gene YDR388W) | The level of expressed mRNA in the presence of chemical substance/The level of expressed mRNA in the absence of chemical substance (yeast gene YEL066W) | The level of expressed mRNA in the presence of chemical substance/ (ratio to absence), gene YGL187C (yeast gene YGL187C, mitochondria-located protein genes, 2 h culture with chemical) | The level of expressed mRNA in the presence of chemical substance/ (in its absence), gene YGR096W (yeast gene YGR096W, ratio of DNA chip fluorescence intensity to that without chemical substance) | The level of expressed mRNA in the presence of chemical substance/The level of expressed mRNA in the absence of chemical substance (yeast gene YHR071W)
0.9: The level of expressed mRNA in the presence of chemical substance/The level of expressed mRNA in the absence of chemical substance (yeast gene YDR115W) | The level of expressed mRNA in the presence of chemical substance/ (ratio to absence), gene YDR377W (yeast gene YDR377W, mitochondria-located protein genes, 2 h culture with chemical) | The level of expressed mRNA in the presence of chemical substance/ (in its absence), gene YDR387C (yeast gene YDR387C, ratio of DNA chip fluorescence intensity to that without chemical substance) | The level of expressed mRNA in the presence of chemical substance/The level of expressed mRNA in the absence of chemical substance (yeast gene YDR481C) | The level of expressed mRNA in the presence of chemical substance/ (in its absence), gene YER015W (yeast gene YER015W, ratio of DNA chip fluorescence intensity to that without chemical substance) | The level of expressed mRNA in the presence of chemical substance/The level of expressed mRNA in the absence of chemical substance (yeast gene YER039C) | The level of expressed mRNA in the presence of chemical substance/The level of expressed mRNA in the absence of chemical substance (yeast gene YFL043C) | The level of expressed mRNA in the presence of chemical substance/ (in its absence), gene YGL035C (yeast gene YGL035C, ratio of DNA chip fluorescence intensity to that without chemical substance) | The level of expressed mRNA in the presence of chemical substance/ (in its absence), gene YGL115W (yeast gene YGL115W, ratio of DNA chip fluorescence intensity to that without chemical substance) | The level of expressed mRNA in the presence of chemical substance/ (ratio to absence of chemical substance) (yeast gene YGL115W) | The level of expressed mRNA in the presence of chemical substance/The level of expressed mRNA in the absence of chemical substance (yeast gene YGR257C) | The level of expressed mRNA in the presence of chemical substance/ (in its absence), gene YGR288W (yeast gene YGR288W, ratio of DNA chip fluorescence intensity to that without chemical substance) | The level of expressed mRNA in the presence of chemical substance/The level of expressed mRNA in the absence of chemical substance (yeast gene YHR004C) | The level of expressed mRNA in the presence of chemical substance/ (in its absence), gene YIL006W (yeast gene YIL006W, ratio of DNA chip fluorescence intensity to that without chemical substance)
2.6: The level of expressed mRNA in the presence of chemical substance/The level of expressed mRNA in the absence of chemical substance (yeast gene YHL047C)
10.6: The level of expressed mRNA in the presence of chemical substance/The level of expressed mRNA in the absence of chemical substance (yeast gene YGR213C)
1.5: The level of expressed mRNA in the presence of chemical substance/ (ratio to absence of chemical substance) (yeast gene YER057C) | The level of expressed mRNA in the presence of chemical substance/The level of expressed mRNA in the absence of chemical substance (yeast gene YFR024C) | The level of expressed mRNA in the presence of chemical substance/ (ratio to absence of chemical substance) (yeast gene YHL028W)
2.4: The level of expressed mRNA in the presence of chemical substance/The level of expressed mRNA in the absence of chemical substance (yeast gene YGR281W)
1.0: The level of expressed mRNA in the presence of chemical substance/The level of expressed mRNA in the absence of chemical substance (yeast gene YDR259C) | The level of expressed mRNA in the presence of chemical substance/ (in its absence), gene YDR297W (yeast gene YDR297W, ratio of DNA chip fluorescence intensity to that without chemical substance) | The level of expressed mRNA in the presence of chemical substance/The level of expressed mRNA in the absence of chemical substance (yeast gene YEL042W) | The level of expressed mRNA in the presence of chemical substance/The level of expressed mRNA in the absence of chemical substance (yeast gene YER130C) | The level of expressed mRNA in the presence of chemical substance/ in its absence, gene YGR062C (yeast gene YGR062C, energy system protein genes, 2 h culture with the chemical, ratio to control without chemical) | The level of expressed mRNA in the presence of chemical substance/ (ratio to absence), gene YGR062C (yeast gene YGR062C, mitochondria-located protein genes, 2 h culture with chemical)
0.5: The level of expressed mRNA in the presence of chemical substance/ (in its absence), gene YHR210C (yeast gene YHR210C, ratio of DNA chip fluorescence intensity to that without chemical substance)
1.4: The level of expressed mRNA in the presence of chemical substance/The level of expressed mRNA in the absence of chemical substance (yeast gene YDR510W)
1.2: The level of expressed mRNA in the presence of chemical substance/The level of expressed mRNA in the absence of chemical substance (yeast gene YGR136W)
3.9: The level of expressed mRNA in the presence of chemical substance/The level of expressed mRNA in the absence of chemical substance (yeast gene YDR406W)
1.3: The level of expressed mRNA in the presence of chemical substance/The level of expressed mRNA in the absence of chemical substance (yeast gene YGL158W) | The level of expressed mRNA in the presence of chemical substance/The level of expressed mRNA in the absence of chemical substance (yeast gene YGR189C) | The level of expressed mRNA in the presence of chemical substance/The level of expressed mRNA in the absence of chemical substance (yeast gene YHR142W)
0.4: The level of expressed mRNA in the presence of chemical substance/The level of expressed mRNA in the absence of chemical substance (yeast gene YFR015C, two hours culture)
2.0: The level of expressed mRNA in the presence of chemical substance/The level of expressed mRNA in the absence of chemical substance (yeast gene YGR008C, two hours culture)
0.6: The level of expressed mRNA in the presence of chemical substance/The level of expressed mRNA in the absence of chemical substance (yeast gene YDR315C) | The level of expressed mRNA in the presence of chemical substance/ (ratio to absence of chemical substance) (yeast gene YEL039C) | The level of expressed mRNA in the presence of chemical substance/ (ratio to absence of chemical substance) (yeast gene YIL011W)
0.7: The level of expressed mRNA in the presence of chemical substance/The level of expressed mRNA in the absence of chemical substance (yeast gene YDR084C) | The level of expressed mRNA in the presence of chemical substance/The level of expressed mRNA in the absence of chemical substance (yeast gene YDR432W) | The level of expressed mRNA in the presence of chemical substance/The level of expressed mRNA in the absence of chemical substance (yeast gene YER107C)
1.6: The level of expressed mRNA in the presence of chemical substance/The level of expressed mRNA in the absence of chemical substance (yeast gene YDR085C) | The level of expressed mRNA in the presence of chemical substance/The level of expressed mRNA in the absence of chemical substance (yeast gene YHR139C)
1.1: The level of expressed mRNA in the presence of chemical substance/ in its absence, gene YDR079W (yeast gene YDR079W, energy system protein genes, 2 h culture with the chemical, ratio to control without chemical) | The level of expressed mRNA in the presence of chemical substance/ (ratio to absence), gene YDR079W (yeast gene YDR079W, mitochondria-located protein genes, 2 h culture with chemical) | The level of expressed mRNA in the presence of chemical substance/The level of expressed mRNA in the absence of chemical substance (yeast gene YDR104C) | The level of expressed mRNA in the presence of chemical substance/The level of expressed mRNA in the absence of chemical substance (yeast gene YDR358W) | The level of expressed mRNA in the presence of chemical substance/The level of expressed mRNA in the absence of chemical substance (yeast gene YFL028C) | The level of expressed mRNA in the presence of chemical substance/ (in its absence), gene YGL205W (yeast gene YGL205W, ratio of DNA chip fluorescence intensity to that without chemical substance) | The level of expressed mRNA in the presence of chemical substance/The level of expressed mRNA in the absence of chemical substance (yeast gene YGL229C) | The level of expressed mRNA in the presence of chemical substance/ (in its absence), gene YGR287C (yeast gene YGR287C, ratio of DNA chip fluorescence intensity to that without chemical substance) | The level of expressed mRNA in the presence of chemical substance/ (ratio to absence of chemical substance) (yeast gene YHL046C)
